Experiments:
[1] = target: Cystic fibrosis transmembrane conductance regulator (Homo sapiens, UniProt P13569); assay: CSE-HRP cell viability (Cell surface expression-horseradish peroxidase) assay
[2] = target: Prostaglandin G/H synthase 1 (Homo sapiens) (UniProt P23219); assay: COX1(h) Eurofins-Cerep enzyme and uptake assay; details: Compound concentration 10.0 uM
[3] = target: Prostaglandin G/H synthase 2 (Homo sapiens) (UniProt P35354); assay: COX2(h) Eurofins-Cerep enzyme and uptake assay; details: Compound concentration 10.0 uM
[4] = target: Angiotensin-converting enzyme (Homo sapiens) (UniProt P12821); assay: ACE (h) Eurofins-Cerep enzyme and uptake assay; details: Compound concentration 10.0 uM
[5] = target: Sodium/potassium-transporting ATPase (Sus scrofa) (UniProt P05027+P05024+D2WKD8+D2WKD7+F1ST41); assay: ATPase (Na+/K+) Eurofins-Cerep enzyme and uptake assay; type: protein-complex assay; details: Compound concentration 10.0 uM
[6] = target: Beta-1 adrenergic receptor (Homo sapiens) (UniProt P08588); assay: Beta1 (h) Eurofins-Cerep binding assay; design: ligand concentration 0.3 nM; details: filed as agonist, Compound concentration 10.0 uM
[7] = target: T1, GABA-A receptor; anion channel (Rattus norvegicus) (UniProt O09028+P15431+P18506+P18508+P19969+P20236+P23574+P23576+P28471+P28473+P30191+P62813+P63079+P63138+Q91ZM7+Q9ES14); assay: BZD (central) Eurofins-Cerep binding assay; type: protein-complex assay; design: ligand concentration 0.4 nM; details: filed as agonist, Compound concentration 10.0 uM
[8] = target: Neuropeptide Y receptor type 1 (Homo sapiens) (UniProt P25929); assay: Y1 (h) Eurofins-Cerep binding assay; design: ligand concentration 0.025 nM; details: filed as agonist, Compound concentration 10.0 uM
[9] = target: P2X receptor (Rattus norvegicus) (UniProt P51579+P49653+P51578+Q64663+P47824+P51577+P49654); assay: P2X Eurofins-Cerep binding assay; type: protein assay; design: ligand concentration 3 nM; details: filed as agonist, Compound concentration 10.0 uM
[10] = test system: Tyrosine-protein kinase ABL1 (Homo sapiens), P00519 [T315I]; details: Compound concentration 1000.0 nM
[11] = target: Activin receptor type-1B (Homo sapiens) (UniProt P36896); details: Compound concentration 1000.0 nM
[12] = target: RAC-beta serine/threonine-protein kinase (Homo sapiens) (UniProt P31751); details: Compound concentration 1000.0 nM
[13] = target: Bone morphogenetic protein receptor type-2 (Homo sapiens) (UniProt Q13873); details: Compound concentration 1000.0 nM
[14] = target: Cyclin-dependent kinase 19 (Homo sapiens) (UniProt Q9BWU1); details: Compound concentration 1000.0 nM
[15] = target: Serine/threonine-protein kinase Chk2 (Homo sapiens) (UniProt O96017); details: Compound concentration 1000.0 nM
[16] = target: Dual specificity protein kinase CLK4 (Homo sapiens) (UniProt Q9HAZ1); details: Compound concentration 1000.0 nM
[17] = target: Serine/threonine-protein kinase 17B (Homo sapiens) (UniProt O94768); details: Compound concentration 1000.0 nM
[18] = test system: Epidermal growth factor receptor (Homo sapiens), P00533 [UNDEFINED MUTATION]; details: Compound concentration 1000.0 nM
[19] = target: Ephrin type-A receptor 8 (Homo sapiens) (UniProt P29322); details: Compound concentration 1000.0 nM
[20] = test system: Receptor-type tyrosine-protein kinase FLT3 (Homo sapiens), P36888 [UNDEFINED MUTATION]; details: Compound concentration 1000.0 nM
[21] = target: Insulin-like growth factor 1 receptor (Homo sapiens) (UniProt P08069); details: Compound concentration 1000.0 nM
[22] = target: Tyrosine-protein kinase ITK/TSK (Homo sapiens) (UniProt Q08881); details: Compound concentration 1000.0 nM
[23] = test system: Mast/stem cell growth factor receptor Kit (Homo sapiens), P10721 [V559D,V654A]; details: Compound concentration 1000.0 nM
[24] = target: Mitogen-activated protein kinase kinase kinase 13 (Homo sapiens) (UniProt O43283); details: Compound concentration 1000.0 nM
[25] = target: Tyrosine-protein kinase Mer (Homo sapiens) (UniProt Q12866); details: Compound concentration 1000.0 nM
[26] = target: Myosin light chain kinase (Homo sapiens) (UniProt Q32MK0); details: Compound concentration 1000.0 nM
[27] = target: Serine/threonine-protein kinase 38 (Homo sapiens) (UniProt Q15208); details: Compound concentration 1000.0 nM
[28] = target: Platelet-derived growth factor receptor alpha (Homo sapiens) (UniProt P16234); details: Compound concentration 1000.0 nM
[29] = target: Serine/threonine-protein kinase pim-1 (Homo sapiens) (UniProt P11309); details: Compound concentration 1000.0 nM
[30] = target: Protein kinase C iota type (Homo sapiens) (UniProt P41743); details: Compound concentration 1000.0 nM
[31] = target: cGMP-dependent protein kinase 1 (Homo sapiens) (UniProt Q13976); details: Compound concentration 1000.0 nM
[32] = test system: Proto-oncogene tyrosine-protein kinase receptor Ret (Homo sapiens), P07949 [V804M]; details: Compound concentration 1000.0 nM
[33] = target: Serine/threonine-protein kinase RIO2 (Homo sapiens) (UniProt Q9BVS4); details: Compound concentration 1000.0 nM
[34] = target: Ribosomal protein S6 kinase alpha-5 (Homo sapiens) (UniProt O75582); details: Compound concentration 1000.0 nM
[35] = target: Ribosomal protein S6 kinase alpha-3 (Homo sapiens) (UniProt P51812); details: Compound concentration 1000.0 nM
[36] = target: Ribosomal protein S6 kinase beta-1 (Homo sapiens) (UniProt P23443); details: Compound concentration 1000.0 nM
[37] = target: STE20/SPS1-related proline-alanine-rich protein kinase (Homo sapiens) (UniProt Q9UEW8); details: Compound concentration 1000.0 nM
[38] = target: Serine/threonine-protein kinase TAO1 (Homo sapiens) (UniProt Q7L7X3); details: Compound concentration 1000.0 nM
[39] = target: Serine/threonine-protein kinase TAO3 (Homo sapiens) (UniProt Q9H2K8); details: Compound concentration 1000.0 nM
[40] = target: Tyrosine-protein kinase TXK (Homo sapiens) (UniProt P42681); details: Compound concentration 1000.0 nM
[41] = target: Histamine H1 receptor (Homo sapiens) (UniProt P35367); details: Compound concentration 10.0 uM
[42] = target: T1, GABA-A receptor; anion channel (Rattus norvegicus); details: Compound concentration 10.0 uM

Chain of Histamine H1 receptor (Homo sapiens) (P35367 whole entry): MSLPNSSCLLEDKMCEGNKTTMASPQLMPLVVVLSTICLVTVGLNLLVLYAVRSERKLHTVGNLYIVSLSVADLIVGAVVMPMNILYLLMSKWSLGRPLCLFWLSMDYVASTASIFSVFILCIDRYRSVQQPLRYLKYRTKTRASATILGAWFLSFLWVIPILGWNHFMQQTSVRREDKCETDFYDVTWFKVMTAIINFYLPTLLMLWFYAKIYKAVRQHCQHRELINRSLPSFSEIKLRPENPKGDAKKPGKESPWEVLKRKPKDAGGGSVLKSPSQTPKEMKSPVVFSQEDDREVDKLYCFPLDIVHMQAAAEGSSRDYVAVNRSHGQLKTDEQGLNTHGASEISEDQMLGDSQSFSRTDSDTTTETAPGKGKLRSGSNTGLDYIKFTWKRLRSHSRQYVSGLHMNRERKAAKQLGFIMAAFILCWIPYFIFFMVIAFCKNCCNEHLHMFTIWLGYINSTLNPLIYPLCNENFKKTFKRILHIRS
Chain of Cyclin-dependent kinase 19 (Homo sapiens) (Q9BWU1 whole entry): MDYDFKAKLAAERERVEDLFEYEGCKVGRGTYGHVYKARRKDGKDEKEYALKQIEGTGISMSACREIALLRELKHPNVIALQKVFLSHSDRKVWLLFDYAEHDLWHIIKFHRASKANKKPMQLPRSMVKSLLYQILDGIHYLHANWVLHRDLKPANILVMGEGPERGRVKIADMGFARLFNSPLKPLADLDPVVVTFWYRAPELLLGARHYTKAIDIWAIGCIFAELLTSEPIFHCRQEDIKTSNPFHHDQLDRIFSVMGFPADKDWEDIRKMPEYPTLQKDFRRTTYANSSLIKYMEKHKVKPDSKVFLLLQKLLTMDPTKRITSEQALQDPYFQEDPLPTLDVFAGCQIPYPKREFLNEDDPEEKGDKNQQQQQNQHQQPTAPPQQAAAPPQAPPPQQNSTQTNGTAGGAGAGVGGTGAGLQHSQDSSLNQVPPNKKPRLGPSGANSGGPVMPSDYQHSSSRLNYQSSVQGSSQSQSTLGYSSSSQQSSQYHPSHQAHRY
Chain of Tyrosine-protein kinase ITK/TSK (Homo sapiens) (Q08881 whole entry): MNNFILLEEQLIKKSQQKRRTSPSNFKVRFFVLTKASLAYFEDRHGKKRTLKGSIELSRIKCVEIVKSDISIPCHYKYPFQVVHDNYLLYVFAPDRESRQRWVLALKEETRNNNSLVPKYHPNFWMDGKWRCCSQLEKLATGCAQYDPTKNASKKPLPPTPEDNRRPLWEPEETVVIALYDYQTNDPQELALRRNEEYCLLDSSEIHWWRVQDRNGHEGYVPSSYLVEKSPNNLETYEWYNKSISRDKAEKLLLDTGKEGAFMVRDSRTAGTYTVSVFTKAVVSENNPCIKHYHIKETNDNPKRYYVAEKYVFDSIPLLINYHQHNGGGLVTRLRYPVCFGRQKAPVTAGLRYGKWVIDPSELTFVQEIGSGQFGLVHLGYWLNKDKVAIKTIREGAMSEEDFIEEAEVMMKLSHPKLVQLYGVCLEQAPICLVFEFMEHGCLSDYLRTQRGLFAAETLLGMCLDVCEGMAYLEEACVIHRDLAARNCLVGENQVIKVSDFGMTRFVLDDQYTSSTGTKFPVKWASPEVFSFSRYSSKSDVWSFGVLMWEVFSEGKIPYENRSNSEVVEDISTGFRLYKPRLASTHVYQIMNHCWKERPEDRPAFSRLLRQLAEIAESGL
Chain of Ribosomal protein S6 kinase beta-1 (Homo sapiens) (P23443 whole entry, looked up): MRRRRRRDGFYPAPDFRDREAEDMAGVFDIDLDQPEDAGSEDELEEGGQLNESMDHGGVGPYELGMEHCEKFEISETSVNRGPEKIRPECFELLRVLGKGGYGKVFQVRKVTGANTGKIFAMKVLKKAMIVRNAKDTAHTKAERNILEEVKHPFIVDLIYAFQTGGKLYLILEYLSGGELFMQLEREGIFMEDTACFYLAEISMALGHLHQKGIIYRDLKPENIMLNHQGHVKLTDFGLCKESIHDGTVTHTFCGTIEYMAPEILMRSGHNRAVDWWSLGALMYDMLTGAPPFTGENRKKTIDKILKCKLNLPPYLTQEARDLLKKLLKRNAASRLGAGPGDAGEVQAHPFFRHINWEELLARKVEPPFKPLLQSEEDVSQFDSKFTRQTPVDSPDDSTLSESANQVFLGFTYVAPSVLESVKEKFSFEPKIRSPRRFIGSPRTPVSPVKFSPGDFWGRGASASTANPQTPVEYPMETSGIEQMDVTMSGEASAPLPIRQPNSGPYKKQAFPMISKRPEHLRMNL
Chain of Prostaglandin G/H synthase 1 (Homo sapiens) (P23219 whole entry): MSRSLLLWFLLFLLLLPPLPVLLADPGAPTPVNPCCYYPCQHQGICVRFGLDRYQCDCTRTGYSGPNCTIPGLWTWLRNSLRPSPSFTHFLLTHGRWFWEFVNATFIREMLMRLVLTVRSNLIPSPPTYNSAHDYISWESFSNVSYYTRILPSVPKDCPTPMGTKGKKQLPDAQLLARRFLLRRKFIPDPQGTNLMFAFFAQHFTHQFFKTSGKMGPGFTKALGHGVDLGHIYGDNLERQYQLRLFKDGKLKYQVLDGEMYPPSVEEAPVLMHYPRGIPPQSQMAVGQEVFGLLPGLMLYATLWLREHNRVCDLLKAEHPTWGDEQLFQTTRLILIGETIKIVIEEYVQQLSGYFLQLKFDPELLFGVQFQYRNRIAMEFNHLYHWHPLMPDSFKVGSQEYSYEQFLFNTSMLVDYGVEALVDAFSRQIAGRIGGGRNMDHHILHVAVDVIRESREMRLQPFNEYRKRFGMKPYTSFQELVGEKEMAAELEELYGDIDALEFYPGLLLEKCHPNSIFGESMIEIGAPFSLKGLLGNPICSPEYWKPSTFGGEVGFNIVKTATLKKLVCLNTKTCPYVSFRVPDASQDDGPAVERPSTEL
Chain of Mast/stem cell growth factor receptor Kit (Homo sapiens), P10721 [V559D,V654A] (P10721 whole entry V559D/V654A): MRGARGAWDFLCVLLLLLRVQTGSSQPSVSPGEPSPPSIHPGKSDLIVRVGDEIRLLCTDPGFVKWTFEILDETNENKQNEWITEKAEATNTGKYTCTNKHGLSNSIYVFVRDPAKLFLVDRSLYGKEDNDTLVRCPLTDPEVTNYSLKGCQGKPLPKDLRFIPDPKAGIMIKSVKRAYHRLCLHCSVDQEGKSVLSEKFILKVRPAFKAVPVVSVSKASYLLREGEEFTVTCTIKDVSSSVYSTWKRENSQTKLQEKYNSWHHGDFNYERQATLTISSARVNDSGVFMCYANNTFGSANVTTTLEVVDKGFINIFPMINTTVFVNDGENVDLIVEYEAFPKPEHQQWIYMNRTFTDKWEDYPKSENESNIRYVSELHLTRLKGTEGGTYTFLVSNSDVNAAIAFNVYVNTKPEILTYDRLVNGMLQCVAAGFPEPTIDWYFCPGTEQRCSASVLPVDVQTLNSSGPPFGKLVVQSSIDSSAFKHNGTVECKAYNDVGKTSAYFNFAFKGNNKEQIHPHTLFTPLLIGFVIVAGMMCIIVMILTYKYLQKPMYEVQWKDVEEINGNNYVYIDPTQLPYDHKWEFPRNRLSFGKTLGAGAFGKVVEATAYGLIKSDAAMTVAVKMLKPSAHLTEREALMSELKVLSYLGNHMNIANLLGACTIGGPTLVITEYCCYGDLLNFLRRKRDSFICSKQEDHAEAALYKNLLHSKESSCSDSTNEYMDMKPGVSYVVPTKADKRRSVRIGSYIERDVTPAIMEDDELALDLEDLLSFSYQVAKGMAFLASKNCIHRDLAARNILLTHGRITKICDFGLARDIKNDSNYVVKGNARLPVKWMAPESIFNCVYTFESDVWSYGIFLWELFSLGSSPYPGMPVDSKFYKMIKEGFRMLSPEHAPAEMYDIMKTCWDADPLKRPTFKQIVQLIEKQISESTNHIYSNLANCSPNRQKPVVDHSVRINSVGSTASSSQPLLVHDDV
Chain of Receptor-type tyrosine-protein kinase FLT3 (Homo sapiens), P36888 [UNDEFINED MUTATION] (P36888 whole entry, looked up, stated change not applied): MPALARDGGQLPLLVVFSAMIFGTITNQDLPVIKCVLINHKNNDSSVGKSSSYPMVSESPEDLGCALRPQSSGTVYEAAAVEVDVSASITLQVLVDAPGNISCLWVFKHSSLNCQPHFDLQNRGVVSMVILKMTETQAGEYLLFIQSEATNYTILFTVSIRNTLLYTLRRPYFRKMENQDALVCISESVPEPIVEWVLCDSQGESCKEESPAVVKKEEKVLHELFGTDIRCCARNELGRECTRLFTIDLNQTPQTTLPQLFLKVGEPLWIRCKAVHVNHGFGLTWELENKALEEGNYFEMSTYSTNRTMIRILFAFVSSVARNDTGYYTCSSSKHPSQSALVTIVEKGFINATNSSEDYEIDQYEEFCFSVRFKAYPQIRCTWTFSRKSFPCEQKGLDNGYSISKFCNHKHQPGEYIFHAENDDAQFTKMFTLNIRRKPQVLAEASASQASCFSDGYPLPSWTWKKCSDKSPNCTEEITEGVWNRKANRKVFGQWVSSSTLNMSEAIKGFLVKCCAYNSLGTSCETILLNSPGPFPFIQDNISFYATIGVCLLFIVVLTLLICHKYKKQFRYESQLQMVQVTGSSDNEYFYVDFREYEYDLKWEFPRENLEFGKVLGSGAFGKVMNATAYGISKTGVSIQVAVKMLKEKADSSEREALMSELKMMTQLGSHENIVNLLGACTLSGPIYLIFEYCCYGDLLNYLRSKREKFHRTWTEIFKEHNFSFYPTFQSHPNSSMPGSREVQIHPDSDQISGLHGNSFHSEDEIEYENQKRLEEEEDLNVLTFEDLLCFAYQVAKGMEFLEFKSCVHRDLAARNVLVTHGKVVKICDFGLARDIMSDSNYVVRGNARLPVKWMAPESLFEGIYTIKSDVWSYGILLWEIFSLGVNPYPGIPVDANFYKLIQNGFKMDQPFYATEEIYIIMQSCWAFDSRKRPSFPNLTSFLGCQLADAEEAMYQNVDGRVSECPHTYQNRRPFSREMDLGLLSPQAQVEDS
Chain of Serine/threonine-protein kinase pim-1 (Homo sapiens) (P11309 whole entry, looked up): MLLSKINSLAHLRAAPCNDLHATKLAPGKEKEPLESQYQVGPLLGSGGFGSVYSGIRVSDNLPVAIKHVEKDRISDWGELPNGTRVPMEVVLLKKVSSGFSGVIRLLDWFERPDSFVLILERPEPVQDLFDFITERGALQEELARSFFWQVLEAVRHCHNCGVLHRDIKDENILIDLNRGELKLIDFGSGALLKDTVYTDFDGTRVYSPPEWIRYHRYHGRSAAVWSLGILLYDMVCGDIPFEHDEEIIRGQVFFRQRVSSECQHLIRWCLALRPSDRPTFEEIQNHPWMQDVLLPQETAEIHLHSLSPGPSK

COc1ccc2c(c1)O[C@@H](c1ccc(OC)c(OC)c1)C[C@H]2NC(=O)C1(c2ccc3c(c2)OC(F)(F)O3)CC1 [A-1596586]
EC50 [1]: > 20 µM (not active)
% Inhibition of Control Values (Mean n=2) [2]: -7.9%
% Inhibition of Control Values (Mean n=2) [3]: -9.3%
% Inhibition of Control Values (Mean n=2) [4]: -94%
% Inhibition of Control Values (Mean n=2) [5]: 0.8%
% Inhibition of Control Specific Binding (Mean n=2) [6]: 3.1%
% Inhibition of Control Specific Binding (Mean n=2) [7]: -12.3%
% Inhibition of Control Specific Binding (Mean n=2) [8]: 9.8%
% Inhibition of Control Specific Binding (Mean n=2) [9]: -21.7%
residual activity [10]: 82%
residual activity [11]: 67%
residual activity [12]: 100%
residual activity [13]: 68%
residual activity [14]: 93%
residual activity [15]: 84%
residual activity [16]: 100%
residual activity [17]: 100%
residual activity [18]: 62%
residual activity [19]: 82%
residual activity [20]: 100%
residual activity [21]: 90%
residual activity [22]: 86%
residual activity [23]: 100%
residual activity [24]: 67%
residual activity [25]: 95%
residual activity [26]: 95%
residual activity [27]: 91%
residual activity [28]: 78%
residual activity [29]: 91%
residual activity [30]: 92%
residual activity [31]: 100%
residual activity [32]: 95%
residual activity [33]: 100%
residual activity [34]: 100%
residual activity [35]: 100%
residual activity [36]: 81%
residual activity [37]: 71%
residual activity [38]: 93%
residual activity [39]: 91%
residual activity [40]: 97%
inhibition [41]: 22.3%
inhibition [42]: 11.1%

COc1ccc2c(c1)O[C@H](c1ccc(OC)c(OC)c1)C[C@@H]2NC(=O)C1(c2ccc3c(c2)OC(F)(F)O3)CC1 [A-1596584]
EC50 [1]: > 20 µM (not active)
% Inhibition of Control Values (Mean n=2) [2]: -6.7%
% Inhibition of Control Values (Mean n=2) [3]: -17.9%
% Inhibition of Control Values (Mean n=2) [4]: -28.5%
% Inhibition of Control Values (Mean n=2) [5]: 2.2%
% Inhibition of Control Specific Binding (Mean n=2) [6]: -2.1%
% Inhibition of Control Specific Binding (Mean n=2) [7]: -49.6%
% Inhibition of Control Specific Binding (Mean n=2) [8]: -0.4%
% Inhibition of Control Specific Binding (Mean n=2) [9]: 4.8%
residual activity [10]: 100%
residual activity [11]: 82%
residual activity [12]: 96%
residual activity [13]: 92%
residual activity [14]: 94%
residual activity [15]: 100%
residual activity [16]: 92%
residual activity [17]: 100%
residual activity [18]: 59%
residual activity [19]: 100%
residual activity [20]: 100%
residual activity [21]: 98%
residual activity [22]: 100%
residual activity [23]: 100%
residual activity [24]: 91%
residual activity [25]: 98%
residual activity [26]: 95%
residual activity [27]: 100%
residual activity [28]: 87%
residual activity [29]: 100%
residual activity [30]: 89%
residual activity [31]: 100%
residual activity [32]: 100%
residual activity [33]: 100%
residual activity [34]: 91%
residual activity [35]: 93%
residual activity [36]: 91%
residual activity [37]: 100%
residual activity [38]: 100%
residual activity [39]: 100%
residual activity [40]: 95%
inhibition [41]: 49.9%
inhibition [42]: -8.42%
